One experiment has as its target T1, α1a-AR (Homo sapiens, UniProt P35348).
T1 construct: expressed in transfected cells; host or cells: COS-7
T1 sequence (P35348 1-466): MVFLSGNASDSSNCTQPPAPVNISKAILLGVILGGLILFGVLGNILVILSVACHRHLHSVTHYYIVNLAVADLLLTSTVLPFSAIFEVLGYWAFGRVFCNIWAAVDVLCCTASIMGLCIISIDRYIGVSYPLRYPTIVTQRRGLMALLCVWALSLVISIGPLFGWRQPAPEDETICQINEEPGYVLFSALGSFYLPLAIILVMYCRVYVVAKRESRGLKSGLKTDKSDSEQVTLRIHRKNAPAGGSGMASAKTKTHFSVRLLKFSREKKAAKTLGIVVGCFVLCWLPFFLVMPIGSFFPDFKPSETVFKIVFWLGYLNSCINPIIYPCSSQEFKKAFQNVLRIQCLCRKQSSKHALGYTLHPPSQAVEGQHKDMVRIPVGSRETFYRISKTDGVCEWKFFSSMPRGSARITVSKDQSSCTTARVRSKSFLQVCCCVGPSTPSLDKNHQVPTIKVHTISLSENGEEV
Kind of experiment: α1-Adrenergic receptor radio-ligand (125I-HEAT) binding assay, α1a subtype. Conditions: COS-7 cell membranes transfected with α1a-AR, 125I-HEAT 50 pM; read-out: Receptor Binding, Ki α1a-AR. An outline of the steps:
(§1)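 Membranes from COS-7 cells transfected with a single α1-AR subtype, incubated 1 h at rt with 50 pM 125I-HEAT and compound (1 pM–10 µM, half-log steps, final) in Tris/EDTA/NaCl pH 7.4. Bound radioactivity collected by GF/C filtration and scintillation counting, triplicates; Ki derived.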

The target in another experiment is T2, α1b-AR (Homo sapiens, UniProt P35368).
T2 construct: expressed in transfected cells; host or cells: COS-7
T2 sequence (P35368 1-520): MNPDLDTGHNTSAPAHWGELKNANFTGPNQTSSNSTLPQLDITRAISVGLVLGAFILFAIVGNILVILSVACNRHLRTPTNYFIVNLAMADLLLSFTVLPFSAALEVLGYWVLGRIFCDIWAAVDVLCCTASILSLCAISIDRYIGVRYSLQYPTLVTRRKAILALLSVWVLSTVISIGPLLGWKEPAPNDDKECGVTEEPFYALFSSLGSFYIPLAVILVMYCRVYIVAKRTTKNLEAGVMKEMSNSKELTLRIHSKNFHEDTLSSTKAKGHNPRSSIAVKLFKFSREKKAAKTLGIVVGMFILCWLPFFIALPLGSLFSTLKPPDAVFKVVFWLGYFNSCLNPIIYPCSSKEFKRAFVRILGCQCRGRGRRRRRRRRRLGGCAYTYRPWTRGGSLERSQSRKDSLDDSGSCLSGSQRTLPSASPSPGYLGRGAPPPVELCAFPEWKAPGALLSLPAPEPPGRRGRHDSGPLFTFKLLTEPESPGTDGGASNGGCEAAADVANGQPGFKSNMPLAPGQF
The experiment is described as follows: α1-Adrenergic receptor radio-ligand (125I-HEAT) binding assay, α1b subtype. The following applies: COS-7 cell membranes transfected with α1b-AR, 125I-HEAT 50 pM; read-out: Receptor Binding, Ki α1b-AR. An outline of the steps: as §1

The next experiment deals with T3, α1d-AR (Homo sapiens, UniProt P25100).
T3 construct: expressed in transfected cells; host or cells: COS-7
T3 sequence (P25100 1-572): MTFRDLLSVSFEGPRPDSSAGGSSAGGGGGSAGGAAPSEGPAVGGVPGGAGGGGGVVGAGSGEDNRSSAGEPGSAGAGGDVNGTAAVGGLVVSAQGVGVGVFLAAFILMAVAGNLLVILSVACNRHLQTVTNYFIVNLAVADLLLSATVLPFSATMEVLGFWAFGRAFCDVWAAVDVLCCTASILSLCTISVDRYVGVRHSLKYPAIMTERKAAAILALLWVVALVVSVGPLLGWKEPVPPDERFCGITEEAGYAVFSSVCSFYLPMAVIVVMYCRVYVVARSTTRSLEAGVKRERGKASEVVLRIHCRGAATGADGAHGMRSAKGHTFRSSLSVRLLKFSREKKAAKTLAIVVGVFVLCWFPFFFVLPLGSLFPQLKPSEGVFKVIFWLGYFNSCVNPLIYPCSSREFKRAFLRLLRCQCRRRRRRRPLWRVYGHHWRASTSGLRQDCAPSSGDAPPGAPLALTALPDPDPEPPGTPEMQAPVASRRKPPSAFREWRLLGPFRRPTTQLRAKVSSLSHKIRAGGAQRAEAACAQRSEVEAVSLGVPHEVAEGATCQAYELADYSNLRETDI
Kind of experiment: α1-Adrenergic receptor radio-ligand (125I-HEAT) binding assay, α1d subtype. The following applies: COS-7 cell membranes transfected with α1d-AR, 125I-HEAT 50 pM; read-out: Receptor Binding, Ki α1d-AR. The method, boiled down:
as §1

SMILES strings stand for the structures. Values joined by “and” are separate entries in the source; they are usually repeats but may differ in a detail not shown here. Equal values may be shown once.

As usually defined, the Ki is a measure of affinity in units of concentration, obtained from inhibition or displacement. For `CC(C)Oc1ccccc1C1CCN(Cc2cccc(C(=O)N3CCc4ccc(NC(=O)Nc5c(F)cccc5F)cc43)c2)CC1` [Cpd 60, 1-(2,6-difluoro-phenyl)-3-(1-{3-[4-(2-isopropoxy-phenyl)-piperidin-1-ylmethyl]-benzoyl}-2,3-dihydro-1H-indol-6-yl)-urea], the inhibition constant Ki at α1a-AR came to 0.4 nM; at α1b-AR, 121 nM; on α1d-AR it was 0.4 nM.
Regarding `CC(C)Oc1ccccc1N1CCN(Cc2cccc(C(=O)N3CCc4cc(Br)ccc43)c2)CC1` [Cpd 66, (5-bromo-2,3-dihydro-indol-1-yl)-{3-[4-(2-isopropoxy-phenyl)-piperazin-1-ylmethyl]-phenyl}-methanone], the inhibitory constant (Ki) was 1.3 nM at α1a-AR, 82.8 nM at α1b-AR and 0.3 nM at α1d-AR.
For `CCOC(OCC)c1ccc(CNc2ccc3c(c2)CCN3C(=O)c2cccc(CN3CCN(c4ccccc4OC(C)C)CC3)c2)cc1` [Cpd 24, [5-(4-diethoxymethyl-benzylamino)-2,3-dihydro-indol-1-yl]-{3-[4-(2-isopropoxy-phenyl)-piperazin-1-ylmethyl]-phenyl}-methanone] the same measures were 48 nM, 1470 nM and 15 nM.
Consider `CC(C)Oc1ccccc1N1CCN(Cc2cccc(C(=O)N3CCc4cc(Cl)ccc43)c2)CC1` [Cpd 67, (5-chloro-2,3-dihydro-indol-1-yl)-{3-[4-(2-isopropoxy-phenyl)-piperazin-1-ylmethyl]-phenyl}-methanone], for which the Ki is 2.1 nM and 12 nM at α1a-AR; 1140 nM and 1260 nM on α1b-AR; 14.7 nM and 22 nM on α1d-AR.
On to `N#Cc1ccccc1N1CCN(Cc2cccc(C(=O)N3CCc4ccccc43)c2)CC1` [Cpd 31, (2,3-dihydro-indol-1-yl)-{3-[4-(2-cyano-phenyl)-piperazin-1-ylmethyl]-phenyl}-methanone], for which the inhibitory constant (Ki) on α1a-AR is 171 nM; at α1b-AR it was 331 nM; at α1d-AR, 11.6 nM and 88 nM.
As to `CC(C)Oc1ccccc1N1CCN(Cc2cccc(C(=O)N3CCc4cc(-c5ccccc5)ccc43)c2)CC1` [Cpd 72, {3-[4-(2-isopropoxy-phenyl)-piperazin-1-ylmethyl]-phenyl}-(5-phenyl-2,3-dihydro-indol-1-yl)-methanone], the figures for the inhibition constant (Ki) on α1a-AR, at α1b-AR and on α1d-AR were 15 nM, 154 nM and 46 nM, respectively.
For `O=C(c1ccc(CN2CCN(c3ccccc3OCC(F)(F)F)CC2)cc1)N1CCc2ccccc21` [Cpd 55, (2,3-dihydro-indol-1-yl)-(4-{4-[2-(2,2,2-trifluoro-ethoxy)-phenyl]-piperazin-1-ylmethyl}-phenyl)-methanone], the Ki is 25.5 nM on α1a-AR, 310 nM on α1b-AR and 43 nM at α1d-AR.
For `COc1ccccc1C1CCN(Cc2ccc(C(=O)N3CCc4ccc(N)cc43)cc2)CC1` [Cpd 34, (6-amino-2,3-dihydro-indol-1-yl)-{4-[4-(2-methoxy-phenyl)-piperidin-1-ylmethyl]-phenyl}-methanone] the same measures were 34.9 nM, 473 nM and 49.6 nM.
The corresponding values for `CCS(=O)(=O)Nc1ccc2c(c1)N(C(=O)c1cccc(CN3CCN(c4ccccc4OC(C)C)CC3)c1)CC2` [Cpd 47, ethanesulfonic acid (1-{3-[4-(2-isopropoxy-phenyl)-piperazin-1-ylmethyl]-benzoyl}-2,3-dihydro-1H-indol-6-yl)-amide] are 2.3 nM, 230 nM and 2.6 nM.
For `CC(C)Oc1ccccc1N1CCN(Cc2cccc(C(=O)N3CCc4cc(F)ccc43)c2)CC1` [Cpd 68, (5-fluoro-2,3-dihydro-indol-1-yl)-{3-[4-(2-isopropoxy-phenyl)-piperazin-1-ylmethyl]-phenyl}-methanone] the same measures were 13 nM, 288 nM and 13 nM.

(Values after US20060183902A1, “Dihydroindolyl methanones as alpha 1a/1d adrenoreceptor modulators for the treatment of benign prostatic hypertrophy and lower urinary tract symptoms” (priority 2005, published 2006).)
